The test system of one experiment is HCT-8. Description: Growth inhibition against human colon carcinoma HCT-8 cell line. Format: functional, cell-based.
Another experiment relates to L1210. The experiment can be described thus: Growth inhibition against mouse leukemia L1210 cell line. Format: functional, cell-based.

SMILES strings stand for the structures.

This note sets out measurements from ChEMBL document CHEMBL1126892, “Comparative molecular field analysis of in vitro growth inhibition of L1210 and HCT-8 cells by some pyrazoloacridines” (J Med Chem, 1993).

In general, IC50 refers to the concentration that inhibits the measured activity by half. A higher IC50 goes with a need for much substance. For the compound `COc1ccc2c(c1)-c1nn(CCCN(C)C)c3ccc([N+](=O)[O-])c(c13)N2` [PYRAZOLOACRIDINE], the IC50 with HCT-8 is 136 nM; with L1210, 424 nM.
On the same counts, the results for `CCN(CC)CCN1Nc2c3cccc(OC)c3nc3c([N+](=O)[O-])ccc1c23` are 506 nM and 645 nM.
The like results for `CCN(CC)CCN1Nc2c3cc(OCc4ccccc4)ccc3nc3c([N+](=O)[O-])ccc1c23` were, in that order, 1140 nM and 2680 nM.
The like results for `CCCCOc1ccc2c(c1)-c1nn(CCNCCO)c3ccc([N+](=O)[O-])c(c13)N2` were, in that order, 339 nM and 646 nM.
As for `CCN(CC)CCn1nc2c3c(c(/N=C/N(C)C)ccc31)N(C)c1ccccc1-2`, the figures for the IC50 with HCT-8 and in the experiment with L1210 were 297 nM and 785 nM, respectively.
On to `CCCCOc1ccc2c(c1)-c1nn(CCN(CC)CC)c3ccc([N+](=O)[O-])c(c13)N2`, for which the values for the IC50 in the experiment with HCT-8 and with L1210 were 73 nM and 1180 nM, respectively.
The like results for `CCN(CC)CCN1Nc2c3cc(OC(=O)C(C)(C)C)ccc3nc3c([N+](=O)[O-])ccc1c23` were, in that order, 10 nM and 10 nM.
Regarding `COc1ccc2c(c1)-c1nn(CCN(C)C)c3ccc([N+](=O)[O-])c(c13)N2`, the results for the IC50 in the experiment with HCT-8 and in the experiment on L1210 were 105 nM and 396 nM, respectively.
`COc1ccc2c(c1)-c1nn(CCN(C)C)c3c([N+](=O)[O-])cc([N+](=O)[O-])c(c13)N2`: the half-inhibitory concentration (IC50) with HCT-8 was 15 nM; in the experiment on L1210 it was 49 nM.
On to `CCN(CC)CCn1nc2c3c(c(N)ccc31)N(C)c1ccccc1-2`, for which the values for the 50% inhibitory concentration (IC50) in the experiment on HCT-8 and in the experiment with L1210 were 1560 nM and greater than 10000 nM, respectively.
On the same counts, the results for `CCN(CC)CCN1Nc2c3cc(N(C)C)ccc3nc3c([N+](=O)[O-])ccc1c23` are 317 nM and 896 nM.
The like results for `CN(C)CCN1Nc2c3cc(N(C)C)ccc3nc3c([N+](=O)[O-])ccc1c23` were, in that order, 164 nM and 601 nM.
For `CN(C)CCCN1Nc2c3cc(O)ccc3nc3c([N+](=O)[O-])ccc1c23`, in the experiment with L1210, the IC50 was 2 nM. In other words, the single-digit nanomolar range.
Turning to `CSc1ccc2c(c1)-c1nn(CCCN(C)C)c3ccc([N+](=O)[O-])c(c13)N2`, the figures for the half-maximal inhibitory concentration (IC50) in the experiment on HCT-8 and in the experiment with L1210 were 352 nM and 513 nM, respectively.
The like results for `O=[N+]([O-])c1ccc2c3c(c4ccccc4nc13)NN2CCNCCO` were, in that order, 152 nM and 218 nM.
The like results for `CN1c2ccccc2-c2nn(CCNCCO)c3ccc([N+](=O)[O-])c1c23` were, in that order, 518 nM and 510 nM.
As to `CCCOc1ccc2c(c1)-c1nn(CCN(CC)CC)c3ccc([N+](=O)[O-])c(c13)N2`, the IC50 in the experiment on HCT-8 worked out at 31 nM; with L1210 it was 469 nM.
With `CCN(CC)CCN1Nc2c3cc(OC)ccc3nc3c([N+](=O)[O-])ccc1c23`, the IC50 in the experiment with HCT-8 is 123 nM; in the experiment with L1210, 469 nM.
In the experiment with HCT-8, `CCOc1ccc2c(c1)-c1nn(CCCN(C)C)c3ccc([N+](=O)[O-])c(c13)N2` registered an IC50 of 55 nM.
For the compound `CCN(CC)CCn1nc2c3c(c([N+](=O)[O-])ccc31)N(C)c1ccc(OC)cc1-2`, the IC50 was 308 nM in the experiment on HCT-8 and 605 nM in the experiment on L1210.
The like results for `C=CCN1c2ccccc2-c2nn(CCNCCO)c3ccc([N+](=O)[O-])c1c23` were, in that order, 1220 nM and 2710 nM.
On the same counts, the results for `CN(C)CCCN1Nc2c3cc(OC(=O)C(C)(C)C)ccc3nc3c([N+](=O)[O-])ccc1c23` are 27 nM and 8 nM.
On the same counts, the results for `CCN(CC)CCN1Nc2c3ccccc3nc3c([N+](=O)[O-])ccc1c23` are 185 nM and 192 nM.
With `CN1Nc2c3ccccc3nc3c([N+](=O)[O-])ccc1c23`, the IC50 in the experiment with L1210 was greater than 10000 nM.
Take `Cc1ccc2c(c1)-c1nn(CCNCCO)c3ccc([N+](=O)[O-])c(c13)N2`: the results for the half-inhibitory concentration (IC50) in the experiment on HCT-8 and with L1210 were 255 nM and 592 nM, respectively.
On the same counts, the results for `CCN(CC)CCN1Nc2c3cc(O[Si](C)(C)C(C)(C)C)ccc3nc3c([N+](=O)[O-])ccc1c23` are 6 nM and 6 nM.
On to `COc1ccc2c(c1)-c1nn(CCNCCO)c3ccc([N+](=O)[O-])c(c13)N2`, for which the IC50 with HCT-8 was 193 nM; in the experiment on L1210, 450 nM.
Turning to `CCN(CC)CCCN1Nc2c3cc(OC)ccc3nc3c([N+](=O)[O-])ccc1c23`, the IC50 with HCT-8 is 764 nM; in the experiment with L1210, 1330 nM.
On the same counts, the results for `CCN(CC)CCN1Nc2c3cc(OC(C)=O)ccc3nc3c([N+](=O)[O-])ccc1c23` are 5 nM and 4 nM.
On the same counts, the results for `CCN(CC)CCN1c2ccccc2-c2nn(CCN(CC)CC)c3ccc([N+](=O)[O-])c1c23` are 788 nM and 877 nM.
With `CCN(CC)CCN1Nc2c3ccccc3nc3c(NC(C)=O)ccc1c23`, the concentration for half-maximal inhibition (IC50) in the experiment with L1210 is greater than 10000 nM.
On to `CCN(CC)CCN1Nc2c3cc(OC)ccc3nc3c([N+](=O)[O-])cc([N+](=O)[O-])c1c23`, for which the results for the half-inhibitory concentration (IC50) with HCT-8 and in the experiment with L1210 were 66 nM and 399 nM, respectively.
On the same counts, the results for `CCN(CC)CCN1Nc2c3cc(S(C)(=O)=O)ccc3nc3c([N+](=O)[O-])ccc1c23` are 774 nM and 1830 nM.
`C=Cn1nc2c3c(c([N+](=O)[O-])ccc31)N(C)c1ccccc1-2`: the 50% inhibitory concentration (IC50) in the experiment with L1210 is greater than 10000 nM.
Consider `O=[N+]([O-])c1ccc2c3c(c4ccccc4nc13)NN2CCO`, for which, in the experiment on L1210, the half-inhibitory concentration (IC50) is greater than 10000 nM.
Consider `CCN(CC)CCn1nc2c3c(c([N+](=O)[O-])ccc31)N(C)c1ccccc1-2`, for which the IC50 in the experiment on HCT-8 turned out to be 901 nM; in the experiment on L1210 it was 618 nM.
On the same counts, the results for `CCOc1ccc2c(c1)-c1nn(CCNCCO)c3ccc([N+](=O)[O-])c(c13)N2` are 82 nM and 325 nM.
For the compound `CCOc1ccc2c(c1)-c1nn(CCN(C)C)c3ccc([N+](=O)[O-])c(c13)N2`, the half-maximal inhibitory concentration (IC50) with HCT-8 was 25 nM; with L1210 it was 275 nM.
On the same counts, the results for `CCN(CC)CCN1Nc2c3cc(C)ccc3nc3c([N+](=O)[O-])ccc1c23` are 786 nM and 863 nM.
The like results for `COc1ccc2c(c1)-c1nn(CCO)c3ccc([N+](=O)[O-])c(c13)N2` were, in that order, greater than 10000 nM and greater than 10000 nM.
On the same counts, the results for `CCNCCN1Nc2c3cc(OC)ccc3nc3c([N+](=O)[O-])ccc1c23` are 124 nM and 208 nM.
As to `CC(=O)Oc1ccc2nc3c([N+](=O)[O-])ccc4c3c(c2c1)NN4CCCN(C)C`, the IC50 in the experiment with HCT-8 stood at 11 nM; in the experiment with L1210, 1 nM.
In the case of `CCOc1ccc2c(c1)-c1nn(CCN(CC)CC)c3ccc([N+](=O)[O-])c(c13)N2`, in the experiment on HCT-8, half-maximal inhibition (IC50) required 114 nM.
